Assay results reported in patent US20240239759A1, “ISOXAZOLINE COMPOSITIONS AND THEIR USE AS ANTIPARASITICS” (Intervet Inc., priority 2007, published 2024).
“And” between values parts separate entries of the source, which are not always exact repeats. Identical values can stand only once.

How the values were obtained:
[1] = test system: cat fleas (Ctenocephalides felis); experiment: Adult fleas fed on artificial membranes with spiked blood (Example 1); details: 48 hr continuous feeding
Experimental: Adult fleas (20-30) were fed on artificial membranes with blood spiked with Compound 10-1, Compound 11-1, or a positive control (fipronil) at a concentration of 100, 10, or 1 ppm. Flea efficacy was assessed after 48 hr of continuous feeding by comparing the number of killed and damaged fleas with the number of fed fleas. Flea efficacy was 100% for Compound 10-1, Compound 11-1, and fipronil at 100, 10, and 1 ppm.

[2] = test system: adult fleas (C. felis); experiment: Efficacy against fleas on mice (Example 2A); type: in vivo, Ctenocephalides felis
Experimental: (§1) Mice were divided into groups of three, and treated topically with 100 ppm body weight, orally with 10 mg/kg bodyweight, or subcutaneously with 10 mg/kg bodyweight of Compound 11-1, fipronil (positive control), or nothing (negative control). These mice were sedated and infested with adult fleas (C. felis) 1, 3, 6, and 24 hr after treatment. Fleas were recovered from the mice after approximately 30 minutes of feeding. The assessment of flea inhibition (% of dead and damaged fleas) was conducted 1 and 24 hr after each infestation.

[3] = test system: M. musculinus; experiment: Efficacy against mites on mice (Example 2B); type: in vivo, Myocoptes musculinus; design: key: “+”=low infestation rate; “++”=medium infestation rate; “+++”=high infestation rate; details: repeated 7 days later
Experimental: The mice were divided into groups of three, and treated topically with 100 ppm body weight, orally with 10 mg/kg body weight, or subcutaneously with 10 mg/kg body weight of Compound 11-1, fipronil (positive control), or nothing (negative control). This treatment was then repeated 7 days later. The infestation rate per mouse (“+”=low infestation rate, “++”=medium infestation rate, “+++”=high infestation rate) was assessed repeatedly on days 1, 6, 9, 13, and 23. Efficacy was defined as the inhibition of the mite infestation rate on treated mice relative to the negative control group.

[4] = test system: juvenile soft ticks (O. moubata); experiment: Efficacy against soft (Argaside) ticks on Guinea pigs (Example 2C); type: in vivo, Ornithodoros moubata; details: Guinea pig, up to Day 50
Experimental: (§2) Six Guinea pigs were treated orally, subcutaneously, or intraperitoneally with 10 mg/kg bodyweight of Compound 11-1 or fipronil (positive control). The Guinea pigs were locally co-infested with juvenile soft ticks (O. moubata) and bed bugs (C. lectularius) once before the treatment, and at different time points after treatment between days 2 and 50. Ten engorged ticks/bed bugs were collected to assess the percentage of killed individuals per species 24 hr after each infestation.
(§3) For Guinea pigs treated with Compound 11-1, the ticks and bed bugs died within 1 to 5 hr following infestation up to Day 29, and within 8 to 24 hr after day 29. For Guinea pigs treated with fipronil, ticks and bed bugs died within 1 to 7 hr after infestation up to Day 29, and within 8 to 24 hr after day 29.

[5] = test system: bed bugs (C. lectularius); experiment: Efficacy against bed bugs on Guinea pigs (Example 2C); type: in vivo, Cimex lectularius; details: Guinea pig
Experimental: as §2, §3

[6] = test system: brown dog ticks, R. sanguineus (nymphs); experiment: Efficacy against hard (Ixodide) ticks on Guinea pigs (Example 2D); type: in vivo, Rhipicephalus sanguineus; details: all treated groups of Study 1 (100 ppm dip, 10 mg/kg oral, 10 mg/kg subcutaneous) and Study 2 (25 ppm dip, 2.5 mg/kg oral, 2.5 mg/kg subcutaneous), Day 4 to Day 8
Experimental: (§4) Guinea pigs were divided into groups of three. Each group was subjected to one of the following treatments with either Compound 11-1, fipronil (positive control), or neither (negative control):
(§5) • 1. 100 ppm body weight topical administration by animal dip • 2. 10 mg/kg body weight oral administration • 3. 10 mg/kg body weight subcutaneous administration • 4. No treatment (negative control)
(§6) • 1. 25 ppm body weight topical administration by animal dip • 2. 2.5 mg/kg body weight oral administration • 3. 2.5 mg/kg body weight subcutaneous administration • 4. No treatment (negative control) One day before the treatment, all the Guinea pigs were infested with 100 vital juvenile (“nymph”) hard ticks (brown dog ticks, R. sanguineus). Engorged, detached nymphs were counted (eN) from Day 4 to Day 8 to calculate the efficacy of the treatments according to following formula: […]
In addition, collected ticks were assessed for molting into the next stage.

[7] = Side effects in mice, flea study (Example 2A); type: in vivo; details: topical 100 ppm, oral or subcutaneous 10 mg/kg
Experimental: as §1

[8] = Side effects in Guinea pigs, soft tick and bed bug study (Example 2C); type: in vivo; details: Guinea pigs; oral, subcutaneous or intraperitoneal 10 mg/kg
Experimental: as §2

[9] = Side effects in Guinea pigs, hard tick studies (Example 2D); type: in vivo; details: guinea pig, in vivo
Experimental: as §4, §5, §6
In the first study, 32 engorged R. sanguineus nymphs were collected from animals of the untreated negative control group. And in the second study, 75 engorged R. sanguineus nymphs were collected from animals of the untreated negative control group. […] Thus, the inhibition of engorged nymphs for both Compound 11-1 and fipronil was 100%.

Q: Which Flea efficacy ([1]; blood spiked at 1 ppm) does the source give for `N#Cc1nn(-c2c(Cl)cc(C(F)(F)F)cc2Cl)c(N)c1[S+]([O-])C(F)(F)F` (centres unmarked) [fipronil, reference compound] here?
A: The Flea efficacy was 100%.

Q: And the Flea efficacy ([1]; blood spiked at 10 ppm)?
A: Its Flea efficacy is 100%.

Q: And the Flea efficacy ([1]; blood spiked at 100 ppm)?
A: The Flea efficacy was 100%.

Q: And the “Flea inhibition (% of dead and damaged fleas)” value ([2]; oral 10 mg/kg, infested 1 hr after treatment, assessed 1 hr after infestation)?
A: Its value is 0-2%.

Q: And the “Flea inhibition (% of dead and damaged fleas)” value ([2]; oral 10 mg/kg, infested 1 hr after treatment, assessed 24 hr after infestation)?
A: Its value is 3.3%.

Q: And the “Flea inhibition (% of dead and damaged fleas)” value ([2]; oral 10 mg/kg, infested 3 hr after treatment, assessed 1 hr after infestation)?
A: The value was 0-2%.

Q: And the “Flea inhibition (% of dead and damaged fleas)” value ([2]; oral 10 mg/kg, infested 3 hr after treatment, assessed 24 hr after infestation)?
A: Its value is 12.3%.

Q: What about the “Flea inhibition (% of dead and damaged fleas)” value ([2]; oral 10 mg/kg, infested 6 hr after treatment, assessed 1 hr after infestation) of the same compound?
A: The value was 0-2%.

Q: What about the “Flea inhibition (% of dead and damaged fleas)” value ([2]; oral 10 mg/kg, infested 6 hr after treatment, assessed 24 hr after infestation) of the same compound?
A: Its value is 6.7%.

Q: And the “Flea inhibition (% of dead and damaged fleas)” value ([2]; oral 10 mg/kg, infested 24 hr after treatment, assessed 1 hr after infestation)?
A: The value was 0-2%.

Q: And the “Flea inhibition (% of dead and damaged fleas)” value ([2]; oral 10 mg/kg, infested 24 hr after treatment, assessed 24 hr after infestation)?
A: The value was 7.7%.

Q: And the “Flea inhibition (% of dead and damaged fleas)” value ([2]; subcutaneous 10 mg/kg, infested 1 hr after treatment, assessed 1 hr after infestation)?
A: Its value is 0-2%.

Q: What about the “Flea inhibition (% of dead and damaged fleas)” value ([2]; subcutaneous 10 mg/kg, infested 1 hr after treatment, assessed 24 hr after infestation) of the same compound?
A: Its value is 1.0%.

Q: What about the “Flea inhibition (% of dead and damaged fleas)” value ([2]; subcutaneous 10 mg/kg, infested 3 hr after treatment, assessed 1 hr after infestation) of the same compound?
A: The value was 0-2%.

Q: And the “Flea inhibition (% of dead and damaged fleas)” value ([2]; subcutaneous 10 mg/kg, infested 3 hr after treatment, assessed 24 hr after infestation)?
A: Its value is 15.7%.

Q: And the “Flea inhibition (% of dead and damaged fleas)” value ([2]; subcutaneous 10 mg/kg, infested 6 hr after treatment, assessed 1 hr after infestation)?
A: The value was 0-2%.

Q: And the “Flea inhibition (% of dead and damaged fleas)” value ([2]; subcutaneous 10 mg/kg, infested 6 hr after treatment, assessed 24 hr after infestation)?
A: The value was 97.7%.

Q: And the “Flea inhibition (% of dead and damaged fleas)” value ([2]; subcutaneous 10 mg/kg, infested 24 hr after treatment, assessed 1 hr after infestation)?
A: The value was 0-2%.

Q: And the “Flea inhibition (% of dead and damaged fleas)” value ([2]; subcutaneous 10 mg/kg, infested 24 hr after treatment, assessed 24 hr after infestation)?
A: Its value is 94.3%.

Q: And the “Flea inhibition (% of dead and damaged fleas)” value ([2]; topical 100 ppm body weight, infested 1 hr after treatment, assessed 1 hr after infestation)?
A: The value was 0-2%.

Q: What about the “Flea inhibition (% of dead and damaged fleas)” value ([2]; topical 100 ppm body weight, infested 1 hr after treatment, assessed 24 hr after infestation) of the same compound?
A: Its value is 100%.

Q: What about the “Flea inhibition (% of dead and damaged fleas)” value ([2]; topical 100 ppm body weight, infested 3 hr after treatment, assessed 1 hr after infestation) of the same compound?
A: Its value is 0-2%.

Q: And the “Flea inhibition (% of dead and damaged fleas)” value ([2]; topical 100 ppm body weight, infested 3 hr after treatment, assessed 24 hr after infestation)?
A: Its value is 94.3%.

Q: And the “Flea inhibition (% of dead and damaged fleas)” value ([2]; topical 100 ppm body weight, infested 6 hr after treatment, assessed 1 hr after infestation)?
A: The value was 0-2%.

Q: What about the “Flea inhibition (% of dead and damaged fleas)” value ([2]; topical 100 ppm body weight, infested 6 hr after treatment, assessed 24 hr after infestation) of the same compound?
A: The value was 100%.

Q: And the “Flea inhibition (% of dead and damaged fleas)” value ([2]; topical 100 ppm body weight, infested 24 hr after treatment, assessed 1 hr after infestation)?
A: The value was 0-2%.

Q: And the “Flea inhibition (% of dead and damaged fleas)” value ([2]; topical 100 ppm body weight, infested 24 hr after treatment, assessed 24 hr after infestation)?
A: Its value is 76.7%.

Q: And the “Mite infestation rate per mouse” value ([3]; oral 10 mg/kg, Day 1)?
A: Its value is “+++”.

Q: And the “Mite infestation rate per mouse” value ([3]; oral 10 mg/kg, Day 6)?
A: Its value is “++ to +++”.

Q: What about the “Mite infestation rate per mouse” value ([3]; oral 10 mg/kg, Day 9) of the same compound?
A: Its value is “++ to +++”.

Q: What about the “Mite infestation rate per mouse” value ([3]; oral 10 mg/kg, Day 13) of the same compound?
A: Its value is “+”.

Q: And the “Mite infestation rate per mouse” value ([3]; oral 10 mg/kg, Day 23)?
A: The value was “+”.

Q: And the “Mite infestation rate per mouse” value ([3]; subcutaneous 10 mg/kg, Day 1)?
A: Its value is “+++”.

Q: And the “Mite infestation rate per mouse” value ([3]; subcutaneous 10 mg/kg, Day 6)?
A: The value was 2 mice: + to ++ and 1 mouse: +++.

Q: And the “Mite infestation rate per mouse” value ([3]; subcutaneous 10 mg/kg, Day 9)?
A: The value was 2 mice: + to ++ and 1 mouse: +++.

Q: And the “Mite infestation rate per mouse” value ([3]; subcutaneous 10 mg/kg, Day 13)?
A: Its value is “+”.

Q: What about the “Mite infestation rate per mouse” value ([3]; subcutaneous 10 mg/kg, Day 23) of the same compound?
A: The value was “+ to ++”.

Q: And the “Mite infestation rate per mouse” value ([3]; topical 100 ppm body weight, Day 1)?
A: Its value is 2 mice: + to ++ and 1 mouse: +++ (all.

Q: What about the “Mite infestation rate per mouse” value ([3]; topical 100 ppm body weight, Day 6) of the same compound?
A: The value was “+ to ++”.

Q: What about the “Mite infestation rate per mouse” value ([3]; topical 100 ppm body weight, Day 9) of the same compound?
A: Its value is 2 mice: none and 1 mouse: +.

Q: And the “Mite infestation rate per mouse” value ([3]; topical 100 ppm body weight, Day 13)?
A: Its value is “none”.

Q: And the “Mite infestation rate per mouse” value ([3]; topical 100 ppm body weight, Day 23)?
A: The value was “none”.

Q: What about the “Efficacy against soft ticks (killed 24 hr after infestation)” value (“Efficacy against soft ticks” below) ([4]; intraperitoneal 10 mg/kg) of the same compound?
A: Its value is 100% efficacy was observed up to Day 50.

Q: And the “Efficacy against soft ticks” value ([4]; oral 10 mg/kg)?
A: The value was 100% efficacy was observed up to Day 50.

Q: What about the “Efficacy against soft ticks” value ([4]; subcutaneous 10 mg/kg) of the same compound?
A: Its value is 100% efficacy was observed up to Day 50.

Q: And the “Efficacy against bed bugs (killed 24 hr after infestation)” value (“Efficacy against bed bugs” for short) ([5]; intraperitoneal 10 mg/kg, up to Day 18)?
A: The value was 100% efficacy was observed up to Day 18.

Q: And the “Efficacy against bed bugs” value ([5]; oral 10 mg/kg, up to Day 18)?
A: Its value is 100% efficacy was observed up to Day 18.

Q: And the “Efficacy against bed bugs” value ([5]; subcutaneous 10 mg/kg, on Day 37)?
A: The value was “up to Day 35. 50% efficacy was observed”.

Q: What about the “Engorged R. sanguineus nymphs collected” value [6] of the same compound?
A: Its value is “no nymphs were collected”.

Q: And the “Inhibition of engorged nymphs” value [6]?
A: Its value is 100%.

Q: What about the Side effects [7] of the same compound?
A: Its Side effects is “No side effects were observed”.

Q: And the Side effects [8]?
A: Its Side effects is “No side effects were observed”.

Q: What about the Side effects [9] of the same compound?
A: Its Side effects is “No side effects were observed”.
